In article PMC11633360 (ChemistryOpen, 2024):
In brackets after ≈: the same amount, converted by molar mass. Several values for one entry are separate records, joined by “and”; a condition that tells them apart may be missing. Equal entries are not always repeated.

Legend:
[1] = Nitric oxide (NO) scavenging activity; conditions: sodium nitroprusside, pH 7.4, 2 hr, 37 °C, Griess reagent
Description: The NO radical mop‐up ability of the compounds was evaluated using Kurian et al.[49] previous protocol. […] After 2 hr equilibration at 37 °C, 0.250 mL of Griess reagent was added, and the absorbance of the coloured solution produced was measured at 545 nm against a blank solution lacking the test samples. Subsequently, the % NO scavenging antioxidant capacity of the compounds was expressed as: %Nitricoxidescavenging=1-TestsampleAbs/BlankAbs×100

[2] = DPPH radical scavenging activity; conditions: DPPH 300 μM in methanol, 30 minutes, 25 °C
Description: The capacity of the chemical compounds to decolourize the purple colour of DPPH solution was investigated following a modified procedure of Turkoglu et al..[48] […] The solution was mixed gently before equilibration in a dark compartment for 30 minutes at 25 °C. […] The DPPH radical scavenging ability of each compound was estimated using the expression below: %DPPHscavenging=1-TestsampleAbs/BlankAbs×100

Mtb H37Rv = experiment: microbe, parasite or virus in culture; format: cell-based, Mycobacterium tuberculosis; conditions: for MIC90: Mycobacterium tuberculosis, H37RV, read-out: GFP Assay – 10pt DR: MIC90

Nc1ncnc2c1c(N1CCN(CCO)CC1)nn2-c1ccnc2cc(Cl)ccc12 [10 g, 2‐(4‐(4‐Amino‐1‐(7‐Chloroquinolin‐4‐yl)‐1H‐Pyrazolo[3,4–d]pyrimidin‐3‐yl)piperazin‐1‐yl)ethanol]
IC50 [1]: 280 µM
IC50 [2]: 2.96 mM
GFP Assay – 10pt DR: MIC90 (Mtb H37Rv): >125 µM
MIC90 (Mtb H37Rv): 62.5 µM (≈ 26.6 µg/mL)

FC(F)(F)Oc1ccc(Nc2ccnc3cc(Cl)ccc23)cc1 [12 g, 7‐Chloro‐N‐(4‐(trifluoromethoxy)phenyl)quinolin‐4‐Amine]
IC50 [1]: > 4000 µM
melting point: > 250 °C
IC50 [2]: > 4 mM

O=[N+]([O-])c1ccc(Nc2ccnc3cc(Cl)ccc23)cc1 [12 h, 7‐Chloro‐N‐(4‐Nitrophenyl)quinolin‐4‐Amine]
IC50 [1]: 650 µM
IC50 [2]: 0.08 mM
GFP Assay – 10pt DR: MIC90 (Mtb H37Rv): 62.5 µM
MIC90 (Mtb H37Rv): > 125 µM

O=C1O[C@H]([C@@H](O)CO)C(O)=C1O [Ascorbic acid, reference compound]
IC50 [1]: > 4000 µM
IC50 [2]: 0.05 mM

Nc1ncnc2[nH]ncc12 [Compound 4, 1H‐Pyrazolo[3,4–d]pyrimidin‐4‐Amine]
IC50 [1]: 780 µM
IC50 [2]: > 4 mM

Nc1ncnc2[nH]nc(N3CCCCC3)c12 [Compound 8a, 3‐(piperidin‐1‐yl)‐1H‐Pyrazolo[3,4–d]pyrimidin‐4‐Amine]
IC50 [1]: 800 µM
IC50 [2]: 3.4 mM
GFP Assay – 10pt DR: MIC90 (Mtb H37Rv): 125 µM
MIC90 (Mtb H37Rv): > 125 µM

CC1CCN(c2n[nH]c3ncnc(N)c23)CC1 [Compound 8b, 3‐(4‐methylpiperidin‐1‐yl)‐1H‐pyrazolo[3,4–d]pyrimidin‐4‐amine]
IC50 [1]: 1010 µM
IC50 [2]: > 4 mM

Nc1ncnc2[nH]nc(N3CCOCC3)c12 [Compound 8c, 3‐Morpholino‐1H‐Pyrazolo[3,4–d]pyrimidin‐4‐Amine]
IC50 [1]: 880 µM
IC50 [2]: > 4 mM

CN1CCN(c2n[nH]c3ncnc(N)c23)CC1 [Compound 8d, 3‐(4‐Methylpiperazin‐1‐yl)‐1H‐Pyrazolo[3,4–d]pyrimidin‐4‐Amine]
IC50 [1]: 800 µM
IC50 [2]: 0.58 mM
GFP Assay – 10pt DR: MIC90 (Mtb H37Rv): 62.5 µM
MIC90 (Mtb H37Rv): > 125 µM

CCN1CCN(c2n[nH]c3ncnc(N)c23)CC1 [Compound 8e, 3‐(4‐Ethylpiperazin‐1‐yl)‐1H‐Pyrazolo[3,4–d]pyrimidin‐4‐Amine]
IC50 [1]: 980 µM
IC50 [2]: 0.93 mM
GFP Assay – 10pt DR: MIC90 (Mtb H37Rv): 62.5 µM
MIC90 (Mtb H37Rv): > 125 µM

Nc1ncnc2[nH]nc(N3CCN(CCO)CC3)c12 [Compound 8f]
IC50 [1]: 600 µM
IC50 [2]: 3.54 mM
MIC90 (Mtb H37Rv): > 125 µM

Clc1ccc2c(Cl)ccnc2c1 [Compound 9, 4,7‐dichloroquinoline]
IC50 [1]: 820 µM
IC50 [2]: > 4 mM
MIC90 (Mtb H37Rv): > 125 µM

Nc1ncnc2c1cnn2-c1ccnc2cc(Cl)ccc12 [Compound 10a, 1‐(7‐Chloroquinolin‐4‐yl)‐1H‐Pyrazolo[3,4–d]pyrimidin‐4‐Amine]
IC50 [1]: 2590 µM
IC50 [2]: > 4 mM
MIC90 (Mtb H37Rv): > 125 µM

Nc1ncnc2c1c(N1CCCCC1)nn2-c1ccnc2cc(Cl)ccc12 [Compound 10b, 1‐(7‐Chloroquinolin‐4‐yl)‐3‐(piperidin‐1‐yl)‐1H‐Pyrazolo[3,4–d]pyrimidin‐4‐Amine]
IC50 [1]: > 4000 µM
IC50 [2]: > 4 mM
MIC90 (Mtb H37Rv): > 125 µM

CC1CCN(c2nn(-c3ccnc4cc(Cl)ccc34)c3ncnc(N)c23)CC1 [Compound 10c, 1‐(7‐chloroquinolin‐4‐yl)‐3‐(4‐methylpiperidin‐1‐yl)‐1H‐pyrazolo[3,4–d]pyrimidin‐4‐amine]
IC50 [1]: 2780 µM
IC50 [2]: 2.1 mM
GFP Assay – 10pt DR: MIC90 (Mtb H37Rv): >125 µM and 125 µM
MIC90 (Mtb H37Rv): 62.5 µM (≈ 24.6 µg/mL)

Nc1ncnc2c1c(N1CCOCC1)nn2-c1ccnc2cc(Cl)ccc12 [Compound 10d, 1‐(7‐Chloroquinolin‐4‐yl)‐3‐Morpholino‐1H‐Pyrazolo[3,4–d]pyrimidin‐4‐Amine]
IC50 [1]: 2460 µM
IC50 [2]: > 4 mM
MIC90 (Mtb H37Rv): > 125 µM

CN1CCN(c2nn(-c3ccnc4cc(Cl)ccc34)c3ncnc(N)c23)CC1 [Compound 10e, 1‐(7‐Chloroquinolin‐4‐yl)‐3‐(4‐Methylpiperazin‐1‐yl)‐1H‐Pyrazolo[3,4–d]pyrimidin‐4‐Amine]
IC50 [1]: > 4000 µM
IC50 [2]: > 4 mM

CCN1CCN(c2nn(-c3ccnc4cc(Cl)ccc34)c3ncnc(N)c23)CC1 [Compound 10f, 1‐(7‐Chloroquinolin‐4‐yl)‐3‐(4‐Ethylpiperazin‐1‐yl)‐1H‐Pyrazolo[3,4–d]pyrimidin‐4‐Amine]
IC50 [1]: 800 µM
IC50 [2]: > 4 mM
GFP Assay – 10pt DR: MIC90 (Mtb H37Rv): >125 µM and 125 µM
MIC90 (Mtb H37Rv): 62.5 µM (≈ 25.6 µg/mL)

Clc1ccc2c(Nc3ccccc3)ccnc2c1 [Compound 12a, 7‐Chloro‐N‐Phenylquinolin‐4‐Amine]
IC50 [1]: 500 µM
melting point: > 250 °C
IC50 [2]: > 4 mM
GFP Assay – 10pt DR: MIC90 (Mtb H37Rv): 62.5 µM and >125 µM
MIC90 (Mtb H37Rv): 125 µM (≈ 31.8 µg/mL)

Fc1ccc(Nc2ccnc3cc(Cl)ccc23)cc1 [Compound 12b, 7‐Chloro‐N‐(4‐Fluorophenyl)quinolin‐4‐Amine]
IC50 [1]: 1920 µM
IC50 [2]: > 4 mM

Clc1ccc(Nc2ccnc3cc(Cl)ccc23)cc1 [Compound 12c, 7‐Chloro‐N‐(4‐Chlorophenyl)quinolin‐4‐Amine]
IC50 [1]: > 4000 µM
melting point: > 250 °C
IC50 [2]: > 4 mM
MIC90 (Mtb H37Rv): > 125 µM

Clc1ccc2c(Nc3ccc(Br)cc3)ccnc2c1 [Compound 12d, N‐(4‐Bromophenyl)‐7‐Chloroquinolin‐4‐Amine]
IC50 [1]: > 4000 µM
melting point: > 250 °C
IC50 [2]: > 4 mM
MIC90 (Mtb H37Rv): > 125 µM

Cc1ccc(Nc2ccnc3cc(Cl)ccc23)cc1 [Compound 12e, 7‐Chloro‐N‐(p–tolyl)quinolin‐4‐Amine]
IC50 [1]: > 4000 µM
melting point: > 250 °C
IC50 [2]: > 4 mM

COc1ccc(Nc2ccnc3cc(Cl)ccc23)cc1 [Compound 12f, 7‐Chloro‐N‐(4‐Methoxyphenyl)quinolin‐4‐Amine]
IC50 [1]: 880 µM
IC50 [2]: > 4 mM
GFP Assay – 10pt DR: MIC90 (Mtb H37Rv): >125 µM
MIC90 (Mtb H37Rv): 62.5 µM (≈ 17.8 µg/mL)
